From ChEMBL document CHEMBL4673353, “Switching a Xanthine Oxidase Inhibitor to a Dual-Target Antagonist of P2Y and P2Y as an Oral Antiplatelet Agent with a Wider Therapeutic Window in Rats than Ticagrelor” (J Med Chem, 2020) come the findings set out here.

Each structure is given as a SMILES string. Bounds are passed on as bounds.

System in one data set: not listed separately
Briefly: Toxicity in Sprague-Dawley rat model of tail snip bleeding assessed as bleeding weight at 10 mg/kg, po administered via gavage as single dose measured within 2 hrs post tail snip(reference value: 0.08 g). The data set is classed as organism-based. The note with it: in vivo.
Turning to `CCCSc1nc(N[C@@H]2C[C@H]2c2ccc(F)c(F)c2)c2nnn([C@@H]3C[C@H](OCCO)[C@@H](O)[C@H]3O)c2n1` [TICAGRELOR], the Activity came out at 3.89 g.

System in a further data set: not listed separately
Briefly: Toxicity in Sprague-Dawley rat model of tail-snip bleeding assessed as bleeding time at 10 mg/kg, po administered via gavage as single dose measured within 2 hrs post tail snip (reference value: 17.69 min). The note with it: in vivo. The data set is classed as organism-based.
Consider `CCCSc1nc(N[C@@H]2C[C@H]2c2ccc(F)c(F)c2)c2nnn([C@@H]3C[C@H](OCCO)[C@@H](O)[C@H]3O)c2n1` [TICAGRELOR], for which the Time amounted to 120 min.

The next data set relates to Plasma. Briefly: Antiplatelet activity in rabbit platelet-rich plasma assessed as inhibition of ADP-induced platelet aggregation preincubated for 5 mins followed by ADP addition measured every 1 min for up to 6 mins by microplate reader analysis. The data set is classed as functional, cell-free. The note with it: Oryctolagus cuniculus.
In general, IC50 refers to the concentration that inhibits the measured activity by half. With `CCOC(=O)c1c(C)nc(-c2cccc(C#N)c2)n1OC`, the IC50 amounted to 9.13 µM.
As to `Cc1nc(-c2cccc(C#N)c2)n(OCc2ccccc2)c1C(=O)O`, the IC50 came out at 6.24 µM.
Regarding `CCOC(=O)c1[nH]c(-c2cccc(C#N)c2)nc1C`, the IC50 is more than 30 µM.
Regarding `CCOC(=O)c1c(C)nc(-c2cccc(C#N)c2)n1OCc1ccccc1Cl`, the IC50 turned out to be 8.71 µM.
For `CCOC(=O)COn1c(-c2cccc(C#N)c2)nc(C)c1C(=O)OCC`, the IC50 worked out at 6.8 µM.
On the same count and under the same terms, the same measure for `CCOC(=O)c1c(C)nc(-c2cccc(C#N)c2)n1OCc1cccc(C#N)c1`: more than 30 µM; for `CCOC(=O)c1c(C)nc(-c2cccc(C#N)c2)n1OCc1ccc(C)cc1`: 6.31 µM.
Turning to `CCOC(=O)c1c(C)nc(-c2cccc(C#N)c2)n1OCc1ccc(Cl)cc1`, the IC50 came to 6.83 µM.
For `CC(C)(C)c1ccccc1Oc1ncccc1NC(=O)Nc1ccc(OC(F)(F)F)cc1`, the IC50 was 5.54 µM.
As for `CCOC(=O)c1c(C)nc(-c2cccc(C#N)c2)n1OCc1ccccc1F`, the IC50 is 8.99 µM.
As for `CCOC(=O)c1c(C)nc(-c2cccc(C#N)c2)n1OCc1ccncc1`, the IC50 is 6.2 µM.
Turning to `COn1c(-c2cccc(C#N)c2)nc(C)c1C(=O)O`, the IC50 worked out at 7.99 µM.
Still for that read-out and setting: the same measure for `CCOC(=O)c1c(C)nc(-c2cccc(C#N)c2)n1OCCCO`: 11.4 µM.
As for `CCOC(=O)c1c(C)nc(-c2ccc(OCC(C)C)c(C#N)c2)n1O`, the IC50 turned out to be 16.8 µM.
`CCOC(=O)c1c(C)nc(-c2ccccc2C#N)n1OC`: the IC50 was found to be 14.9 µM.
Take `CCOC(=O)c1c(C)nc(-c2ccccc2)n1OC`: the IC50 was more than 30 µM.
Take `CCOC(=O)c1c(C)nc(-c2cccc(C#N)c2)n1OCc1ccc(F)cc1`: the IC50 is 5.88 µM.
Regarding `Cc1ccc(COn2c(-c3cccc(C#N)c3)nc(C)c2C(=O)O)cc1`, the IC50 came to 6.56 µM.
Same read-out and setting: the same measure for `CCOC(=O)c1c(C)nc(-c2cccc(C#N)c2)n1OCc1ccc(C(=O)OC)cc1`: 9.47 µM; for `CCOC(=O)c1c(C)nc(-c2cccc(C#N)c2)n1OCc1ccc(Br)cc1`: 24.6 µM.
In the case of `CCOC(=O)c1c(C)nc(-c2cccc(C#N)c2)n1OCC(N)=O`, the IC50 was more than 30 µM.
With `CCOC(=O)c1c(C)nc(-c2cccc(C#N)c2)n1OCCC(=O)O`, the IC50 is more than 30 µM.
For the compound `C=CCOn1c(-c2cccc(C#N)c2)nc(C)c1C(=O)O`, the IC50 worked out at 6.35 µM.
Consider `CCOC(=O)c1c(C)nc(-c2cccc(C#N)c2)n1O`, for which the IC50 is 17.6 µM.
Consider `CCOC(=O)c1c(C)nc(-c2cccc(C#N)c2)n1C`, for which the IC50 is 22.1 µM.
In the case of `CCOCCOn1c(-c2cccc(C#N)c2)nc(C)c1C(=O)OCC`, the IC50 worked out at 6.25 µM.
On to `CCOC(=O)c1c(C)nc(-c2cccc(C#N)c2)n1OC(C)C`, for which the IC50 is 6.74 µM.
`CCOC(=O)c1c(C)nc(-c2ccc(C#N)cc2)n1OC`: the IC50 came to 13.4 µM.
`C=CCOn1c(-c2cccc(C#N)c2)nc(C)c1C(=O)OCC`: the IC50 worked out at 5.86 µM.
As for `CCOC(=O)c1c(C)nc(-c2cccc(C#N)c2)n1OCc1cccc(F)c1`, the IC50 worked out at 22.4 µM.
The same measure, in the same setting: as for `CCOC(=O)c1c(C)nc(-c2cccc(C#N)c2)n1OCc1ccc([N+](=O)[O-])cc1`, the figure is 8.75 µM; as for `CCOC(=O)c1c(C)nc(-c2cccc(C#N)c2)n1OCc1cccc(Cl)c1`, 19.4 µM; as for `CCOC(=O)c1c(C)nc(-c2cccc(C#N)c2)n1OCc1ccccc1`, 5.93 µM.
In the case of `CCCSc1nc(N[C@@H]2C[C@H]2c2ccc(F)c(F)c2)c2nnn([C@@H]3C[C@H](OCCO)[C@@H](O)[C@H]3O)c2n1` [TICAGRELOR], the IC50 is 7.21 µM.
`CCOC(=O)c1c(C)nc(-c2cccc(C#N)c2)n1OCc1ccc(OC)cc1`: the IC50 turned out to be 6.83 µM.
Same read-out and setting: as for `CCOC(=O)c1c(C)nc(-c2cccc(C#N)c2)n1C(C)C`, the figure is 9.26 µM; as for `CCOC(=O)c1c(C)nc(-c2cccc(C#N)c2)n1OCc1ccccc1C#N`, 9.38 µM.
On the same count and under the same terms, the same measure for `Cc1nc(-c2ccc(OCC(C)C)c(C#N)c2)n(O)c1C(=O)O`: 15.7 µM.

In the next data set the target is P2Y purinoceptor 12 (Homo sapiens, UniProt Q9H244). The data set is described as follows: Antagonist activity at P2Y12 in human whole blood assessed as suppression of ADP-induced decrease in PGE1-induced VASP phosphorylation measured after 10 mins by immunostaining based flow cytometric analysis. The data set is classed as tissue-based.
Chain of P2Y purinoceptor 12 (Q9H244 whole entry): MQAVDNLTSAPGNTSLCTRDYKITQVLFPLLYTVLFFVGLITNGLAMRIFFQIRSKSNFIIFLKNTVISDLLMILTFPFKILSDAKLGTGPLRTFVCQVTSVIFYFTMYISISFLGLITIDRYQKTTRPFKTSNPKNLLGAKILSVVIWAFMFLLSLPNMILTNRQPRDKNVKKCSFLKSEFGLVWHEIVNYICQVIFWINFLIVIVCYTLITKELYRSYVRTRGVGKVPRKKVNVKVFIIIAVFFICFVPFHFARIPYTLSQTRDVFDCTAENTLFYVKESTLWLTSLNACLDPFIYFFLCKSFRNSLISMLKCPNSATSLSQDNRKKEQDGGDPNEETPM
Conditions: not given
On the technique in general: Flow cytometry measures light scatter and fluorescence of single cells or particles in a stream.
In the case of `CNc1nc(Cl)nc2c1ncn2CC(COC(=O)C(C)(C)C)COC(=O)C(C)(C)C`, the IC50 turned out to be 176 µM.
With `CCCSc1nc(N[C@@H]2C[C@H]2c2ccc(F)c(F)c2)c2nnn([C@@H]3C[C@H](OCCO)[C@@H](O)[C@H]3O)c2n1` [TICAGRELOR], the 50% inhibitory concentration (IC50) was 5.14 µM.

The subject of the next data set is Rattus norvegicus. Briefly: Antithrombotic activity in FeCl3-induced Sprague-Dawley rat model of arterial thrombosis assessed as reduction in thrombus weight at 10 mg/kg, po qd administered as single dose for 7 days and measured 2 hrs post last dose. The data set is classed as functional. On the set-up: scale not given: the % may be the effect or the level left. Particulars: time 7 day.
On to `CCCSc1nc(N[C@@H]2C[C@H]2c2ccc(F)c(F)c2)c2nnn([C@@H]3C[C@H](OCCO)[C@@H](O)[C@H]3O)c2n1` [TICAGRELOR], for which the Activity came out at 39.2%.

For another data set, the target named is Xanthine dehydrogenase/oxidase (Bos taurus, UniProt P80457). Briefly: Inhibition of bovine xanthine oxidase assessed as reduction in uric acid formation at 10 uM using xanthine as substrate preincubated for 15 mins followed by substrate addition measured at 30 sec interval for upto 2 mins by spectrophotometric analysis relative to control. Particulars: cattle, time 17 min.
Chain of Xanthine dehydrogenase/oxidase (P80457 whole entry): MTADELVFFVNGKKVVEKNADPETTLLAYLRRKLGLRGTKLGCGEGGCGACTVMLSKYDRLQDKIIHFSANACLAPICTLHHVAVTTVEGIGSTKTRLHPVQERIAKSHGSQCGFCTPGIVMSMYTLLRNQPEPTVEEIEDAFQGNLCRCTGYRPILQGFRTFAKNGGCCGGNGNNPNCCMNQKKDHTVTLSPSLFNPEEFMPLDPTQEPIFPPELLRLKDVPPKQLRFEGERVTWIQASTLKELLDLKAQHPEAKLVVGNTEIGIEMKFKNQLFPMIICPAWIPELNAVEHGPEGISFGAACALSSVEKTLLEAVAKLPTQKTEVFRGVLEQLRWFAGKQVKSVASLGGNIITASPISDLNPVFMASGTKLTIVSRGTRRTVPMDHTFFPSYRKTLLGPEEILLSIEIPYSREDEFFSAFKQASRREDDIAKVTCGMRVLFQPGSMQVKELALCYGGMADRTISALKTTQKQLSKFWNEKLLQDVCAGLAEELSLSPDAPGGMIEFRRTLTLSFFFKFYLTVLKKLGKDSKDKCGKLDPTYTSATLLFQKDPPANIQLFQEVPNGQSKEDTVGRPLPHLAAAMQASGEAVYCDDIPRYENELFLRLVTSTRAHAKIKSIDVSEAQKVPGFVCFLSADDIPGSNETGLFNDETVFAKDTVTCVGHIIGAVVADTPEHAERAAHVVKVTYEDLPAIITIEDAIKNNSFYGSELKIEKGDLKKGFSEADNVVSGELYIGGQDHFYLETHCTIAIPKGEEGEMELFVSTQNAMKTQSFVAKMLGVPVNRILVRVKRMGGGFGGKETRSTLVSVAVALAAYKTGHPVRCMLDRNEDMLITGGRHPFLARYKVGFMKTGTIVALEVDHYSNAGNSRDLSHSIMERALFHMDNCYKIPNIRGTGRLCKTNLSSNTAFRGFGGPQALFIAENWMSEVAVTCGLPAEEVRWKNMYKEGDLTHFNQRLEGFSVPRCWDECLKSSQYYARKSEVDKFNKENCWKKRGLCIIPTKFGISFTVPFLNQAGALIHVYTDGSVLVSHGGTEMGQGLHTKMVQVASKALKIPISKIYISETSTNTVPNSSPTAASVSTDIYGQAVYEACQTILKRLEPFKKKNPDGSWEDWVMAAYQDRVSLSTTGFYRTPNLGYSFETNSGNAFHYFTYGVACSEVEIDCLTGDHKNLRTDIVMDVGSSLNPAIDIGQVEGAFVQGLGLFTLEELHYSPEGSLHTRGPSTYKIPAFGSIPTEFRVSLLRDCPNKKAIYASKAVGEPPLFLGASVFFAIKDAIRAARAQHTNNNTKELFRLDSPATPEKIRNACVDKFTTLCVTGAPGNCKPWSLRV
One may read the inhibition as the change of the read-out against control, counted positive when it falls. Turning to `CCCSc1nc(N[C@@H]2C[C@H]2c2ccc(F)c(F)c2)c2nnn([C@@H]3C[C@H](OCCO)[C@@H](O)[C@H]3O)c2n1` [TICAGRELOR], the inhibition at 10 µM is less than 50%.

System in a further data set: not listed separately
Briefly: Antagonist activity at P2Y1 in rabbit platelet-rich plasma assessed as inhibition of ADP-induced increase in intracellular Ca2+ concentration preincubated for 5 mins followed by ADP addition and measured for 3 mins by fluo4 dye-based fluorescence assay. The data set is classed as cell-free. The note with it: Oryctolagus cuniculus.
Take `CC(C)(C)c1ccccc1Oc1ncccc1NC(=O)Nc1ccc(OC(F)(F)F)cc1`: the IC50 came out at 3.03 µM.
